How the values were obtained:
HNES cells = assay: Colony formation of HNES cells in 2-deoxyglucose; type: cell-based, human; details: HNES cells versus HNES-primed cells
Text: Primed PSC rely on anaerobic glycolysis with very low mitochondrial respiration capacity (Zhou et al., 2012). […] We evaluated the capacity of HNES cells to form colonies in the presence of the glycolysis inhibitor 2-deoxyglucose. […] HNES cells also stained intensely with MitoProbe™ DilC1, reflecting mitochondrial membrane potential (not shown).

[1] = system: reset cells and conventional PSC; assay: Proliferation / colony formation in 2-deoxyglucose; type: cell-based, human; details: reset cells in contrast to conventional PSC, 7 days
Experimental: C & D. Proliferation in 2-deoxyglucose. After single cell dissociation, 3×10^4 cells were seeded on 12 wells and cultured for 7 days with indicated concentrations of 2-deoxyglucose (2DG) or reduced glucose. ROCKi was added to conventional PSC.
We examined functional consequences of altered metabolic properties by culture in 2-deoxyglucose to inhibit glycolysis and in reduced concentrations of glucose to increase dependency on mitochondrial respiration.

## O=CC[C@@H](O)[C@H](O)[C@H](O)CO [2-deoxyglucose]
HNES cells
  colony formation in the presence of 2-deoxyglucose: Undifferentiated HNES cells readily formed colonies while HNES-primed cells did not survive
[1]
  colony formation in the presence of 2-deoxyglucose: reset cells formed undifferentiated colonies
